Patent US20030175678A1, “Methods for identifying genes regulating desired cell phenotypes” (priority 2001, published 2003)

Experiments:
Format in all cases: cell-based
[1] = test system: C. acinaciformis suspension culture; assay: Effect of methyl jasmonate on catechin accumulation in Crassula acinaciformis suspension culture; conditions: M33 medium, added on day 7, by day 16
Procedure: Catechin derivative profiles in the C. acinaciformis suspension culture were obtained from incubations in 250 mL conical flasks containing either 100 mL of M62 growth medium or 100 mL of a secondary metabolite production medium M33 (Murashige and Skoog (1962); modified to contain 5% sucrose and no hormones) inoculated with 40 mL of 21 day old suspension culture. The cultures were incubated under low light conditions (approximately 30 lux) at 25° C. […] 10 mL culture samples were taken at regular intervals for 16 days following the day of subculture to M33 medium. All culture samples were centrifuged for five minutes at 4000 rpm, and the cell residue was freeze-dried. Extraction, sample preparation, and HPLC analysis were performed as described in Example 1.

[2] = test system: Ajuga reptans suspension culture; assay: Differential induction of diterpenes (Compound 6) in Ajuga reptans suspension culture; conditions: B49 production medium, treated day 7, harvested after a further seven days, n = 3
Procedure: Differential induction of diterpenoids in the Ajuga reptans suspension culture was performed by inoculating 500 mL conical flasks containing 190 mL of a secondary metabolite production medium B49 (Gamborg's B5, 5% sucrose, no hormones), with 70 mL of 14 day old suspension culture. The culture was incubated at 25° C. in continuous low light and shaken at 140 rpm. Cultures were grown for seven days (25° C. in continuous low light and shaken at 140 rpm) and then dispensed as 5 mL aliquots to 6-well plates (Bibby Sterilin Ltd, Stone, UK). Cultures were then treated using one of the following protocols:
Triplicate samples were set up for each treatment. Cultures were incubated for a further seven days before harvest for extraction and analysis of diterpenoids.
Cultures were harvested by freezing entire 6-well plates at −20° C. and then freeze-drying cultures in situ. […] After standing for one hour 500 μL of filtered methanol extract was removed and immediately analyzed.
HPLC analysis was carried out using an Xterra RP 18 column (dimensions 3×150 mm with 5 μm packing) using an isocratic solvent system of water (two volumes): acetonitrile (three volumes) to which has been added 0.1% acetic acid. […] The eluate was monitored by UV absorption. The principal diterpene metabolite (Compound 6) has UV absorption maxima at 230, 290 and 340 nm and can be sensitively monitored at any of these wavelengths. […]

taxadiene synthase = assay: PCR of taxadiene synthase in Taxus baccata callus cultures; conditions: callus harvested 24 and 48 hours after treatment, 20-25 PCR cycles
Procedure: Callus was harvested 24 and 48 hours after treatment. An untreated control was also harvested. Samples (500 mg) were frozen in liquid nitrogen and ground to a fine powder. RNA was prepared with an RNEASY™ kit (Qiagen, Valencia, Calif.) as described above.
RNA samples (1.75 μg) from 24 hours post-treatment cultures of Taxus baccata were reverse transcribed using an OMNISCRIPT™ RT kit (Qiagen) with an oligo-dT12-18 primer (Sigma-Aldrich Company, Poole, Dorset, UK). Aliquots (≡0.175 μg RNA) were subject to PCR using a Taq PCR Master Mix kit (Qiagen). Primers were designed from conserved regions of the taxadiene synthases from Taxus chinensis and Taxus brevifolia, and validated by amplification of DNA from Taxus baccata. PCR was carried out at an annealing temperature of 50° C. for 30′; extension was for 1 min at 72° C. Samples were taken after 15, 20, 25, and 30 cycles and run on an agarose gel (FIG. 13). After 20 cycles, a band of the expected size is present in the treated samples (slightly more in the 24 hour harvest) but not in the control.

`CC/C=C\CC1C(=O)CCC1CC(=O)OC` (stereo not drawn) [methyl jasmonate] was tested, and the catechin level [1] was “approximate doubling of catechin level”, the “Compound 6 (mg/L culture) Mean” value [2] was 9.52 mg/L culture and the “induction of taxadiene cyclase” value (taxadiene synthase) was “specific induction of the taxadiene cyclase”.
